From patent publication US9167822B2, “Antifungal compositions” (DSM IP ASSETS B.V., priority 2012, dated 2015) come the findings set out here.

Experiment [1] deals with Botrytis cinerea. The experiment is described as follows: In vitro antifungal activity, 96-well microtiter plates. Type of experiment: cell-based. Particulars: 25° C., day 3, 1.25 ppm natamycin, 6.25 ppm isopyrazam or both. How it is done:
Subsequently, 100 μl of a Botrytis cinerea suspension prepared in PCB medium was used to inoculated each well with 2.5×10^3 spores/ml. […] After incubation of the microtiter plates at 25° C., the in vitro antifungal activity (%) of the individual active ingredients was assessed by calculating the reduction in mould growth observed in the presence of the active ingredient in comparison to the mould growth observed in the absence of the active ingredient. The expected antifungal activity (E in %) of the active ingredient combination was calculated according to the Colby equation (Colby, 1967): […]

The subject of experiment [2] is Penicillium italicum. The experiment is described as above. Type of experiment: cell-based. The note with it: 25° C., day 10, 0.63 ppm natamycin, 25 ppm isopyrazam or both. How it is done:
Subsequently, 100 μl of a Botrytis cinerea suspension prepared in PCB medium was used to inoculated each well with 2.5×10^3 spores/ml.
After incubation of the microtiter plates at 25° C., the in vitro antifungal activity (%) of the individual active ingredients was assessed by calculating the reduction in mould growth observed in the presence of the active ingredient in comparison to the mould growth observed in the absence of the active ingredient. The expected antifungal activity (E in %) of the active ingredient combination was calculated according to the Colby equation (Colby, 1967): E=X+Y−[(X·Y)/100] wherein X and Y are the observed antifungal activities (in %) of the individual active ingredients X and Y, respectively. If the observed antifungal activity (O in %) of the combination exceeds the expected antifungal activity (E in %) of the combination and the resulting synergy factor O/E is thus >1.0, the combined application of the active ingredients leads to a synergistic antifungal effect.
Furthermore, Penicillium italicum was used for inoculation.

For the compound `CC(C)C1C2CCC1c1c(NC(=O)c3cn(C)nc3C(F)F)cccc12` (centres unmarked) [Isopyrazam, isopyrazam], the “Observed antifungal activity O (%)” value in experiment [1] is 0%; in experiment [2] it was 50%.
